Usually IC50 stands for the concentration that inhibits the measured activity by half. Higher therefore signals weaker potency in that assay.

We go through 1 molecule from patent publication US6869964B2, “Heterocyclicsulfonamide hepatitis C virus inhibitors” (Bristol-Myers Squibb Company, priority 2002, dated 2005).

Structures are written as SMILES.

For the experiment, the target named is T1, human sputum elastase (HS) (Homo sapiens, UniProt P08246).
T1 construct: human sputum elastase (HS); from tissue; host or cells: human sputum (from the enzyme's name only)
T1 sequence (P08246 30-267): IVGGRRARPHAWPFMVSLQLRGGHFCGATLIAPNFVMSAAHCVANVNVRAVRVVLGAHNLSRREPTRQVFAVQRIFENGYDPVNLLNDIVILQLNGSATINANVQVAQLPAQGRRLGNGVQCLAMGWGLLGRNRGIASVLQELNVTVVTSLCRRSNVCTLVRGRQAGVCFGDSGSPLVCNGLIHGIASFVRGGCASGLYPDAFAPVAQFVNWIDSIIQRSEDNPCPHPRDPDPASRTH
Description: Specificity assay, human sputum elastase. The following applies: 2 hr enzyme-inhibitor pre-incubation. The experiment is classed as biochemical. Here is the method: The specificities of compounds of the present invention were determined against a variety of serine proteases: human sputum elastase (HS), porcine pancreatic elastase (PPE) and human pancreatic chymotrypsin and one cysteine protease: human liver cathepsin B. In all cases a 96-well plate format protocol using colorimetric p-nitroaniline (pNA) substrate specific for each enzyme was used as described previously (CT 2633 application) with some modifications to the serine protease assays.
Each assay included a 2 hr enzyme-inhibitor pre-incubation at RT followed by addition of substrate and hydrolysis to ˜30% conversion as measured on a Spectramax Pro microplate reader. Compound concentrations varied from 100 to 0.4 μM depending on their potency.
The final conditions and protocol for the serine protease assays were: • 50 mM Tris(hydroxymethyl)aminomethane hydrochloride (Tris-HCl) pH8, • 0.5M Sodium Sulfate (Na2SO4), 50 mM NaCl, 0.1 mM EDTA, 3% DMSO, • 0.01% Tween-20 with: 133 μM succ-AAA-pNA and 20 nM HS or 8 nM PPE; 100 μM succ-AAPF-pNA and 250 pM Chymotrypsin.
The percentage of inhibition was calculated using the formula: [1−((UVinh−UVblank)/(UVctl−UVblank))]×100
A non-linear curve fit was applied to the inhibition-concentration data, and the 50% effective concentration (IC50) was calculated by the use of Excel Xl-fit software.

`C=CC1C[C@]1(NC(=O)[C@@H]1C[C@@H](Oc2cc(-c3ccccc3)nc3cc(OC)ccc23)CN1C(=O)[C@@H](NC(=O)OC(C)(C)C)C(C)(C)C)C(=O)NS(=O)(=O)c1cccs1` (stereo in doubt) [Compound 1, (1-{4-(7-Methoxy-2-phenylquinolin-4-yloxy)-2-[1-(thiophene-2-sulfonylaminocarbonyl)-2-vinyl-cyclopropylcarbamoyl]-pyrrolidine-1-carbonyl}-2,2-dimethylpropyl)carbamic acid tert-butyl ester] gave a half-maximal inhibitory concentration (IC50) of 35 µM.
